Assay results from patent US20070026072A1, “Benzoquinones of enhanced bioavailability” (priority 2005, published 2007).

How the values were obtained:
[1] = Crystallinity of CoQ10 by modulated differential scanning calorimetry (MDSC); type: physicochemical; settings: Example 6, 20% total solids; MDSC heat-only, aluminum hermetic pans
Excerpt: Four spray dried powders were made containing CoQ10 and two solubility-enhancing polymers at two CoQ10:polymer ratios for each polymer.

[2] = Dissolution, USP apparatus II (paddles), media containing Cremophor EL and 4% Acconon MC8; type: physicochemical; settings: Example 6
Method: Dissolution properties were measured on the four spray dried powders of Example 1, crystalline CoQ10 and two commercial CoQ10 products (one soft gel and one dry powder capsule). All non-commercial samples were hand-filled into size 1 gelatin capsules (Shinogi Qualicaps). USP apparatus II (paddles) (VK 70100®, Varian Inc.) was used, with a bath temperature of 37° C. at 50 rpm for the first 60 minutes and then 200 rpm for an additional 15 minutes. The media contained Cremophoro EL (BASF Corp.), and 4% Acconono® MC8 (Abitec Corp.). Analysis was performed using high pressure liquid chromatography (HPLC) with UV detection (SCL-10 controller with SPD-10A detector module, Shimadzu Scientific Instruments)

[3] = dissolution method of Example 2

COC1=C(OC)C(=O)C(C/C=C(\C)CC/C=C(\C)CC/C=C(\C)CC/C=C(\C)CC/C=C(\C)CC/C=C(\C)CC/C=C(\C)CC/C=C(\C)CC/C=C(\C)CCC=C(C)C)=C(C)C1=O [CoQ10 (as received), Coenzyme Q10]
crystallinity [1]: 100% | t50% (time for 50% CoQ10 dissolution) [2, 3]: not attained | t80% (time for 80% CoQ10 dissolution) [2, 3]: not attained | max. CoQ10 release ([2]; dissolution method of Example 2, 75 minutes): 4.3%
